# In patent US6867293B2, “Polynucleotide constructs having at least one transcriptional enhancer and encoding a modified rice EPSPS enzyme” (Syngenta Limited, priority 2000, dated 2005):
# Counter-ions that a name gives are not always drawn.
# What was measured:
# [1] = molecular target: T1, mutant form of rice EPSPS (Oryza sativa, UniProt A0A0N9WU17, P177S/T173I); test: EPSPS enzyme assay and kinetic constants, purified mutant rice EPSPS expressed in E. coli; type: biochemical
# T1 sequence (A0A0N9WU17 72-515 T173I/P177S): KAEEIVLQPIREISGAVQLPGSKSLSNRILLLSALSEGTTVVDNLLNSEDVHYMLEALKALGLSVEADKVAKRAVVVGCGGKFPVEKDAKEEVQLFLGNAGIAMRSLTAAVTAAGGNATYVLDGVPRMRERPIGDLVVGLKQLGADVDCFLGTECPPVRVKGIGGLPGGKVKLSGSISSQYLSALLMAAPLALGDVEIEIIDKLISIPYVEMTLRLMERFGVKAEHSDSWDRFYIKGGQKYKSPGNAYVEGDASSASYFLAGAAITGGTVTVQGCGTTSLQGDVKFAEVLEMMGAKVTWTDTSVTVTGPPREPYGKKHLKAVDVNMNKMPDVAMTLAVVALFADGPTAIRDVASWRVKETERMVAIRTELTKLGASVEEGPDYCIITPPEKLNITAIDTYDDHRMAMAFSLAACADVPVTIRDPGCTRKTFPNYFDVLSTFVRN
# Method: (§1) Assays are carried out generally according to the radiochemical method of Padgette et al 1987 (Archives of Biochemistry and Biophysics, 258(2) 564-573) with K+ ions as the major species of cationic counterion. Assays in a total volume of 50 μl, in 50 mM Hepes(KOH) pH 7.0 at 25° C., contain purified enzyme or plant extract (see below) diluted appropriately in Hepes pH 7.0 containing 10% glycerol, and 5 mM DTT, ^14C PEP either as variable substrate (for kinetic determinations) or fixed at 100 or 250 μM and shikimate 3 Phosphate (K+ salt) at 2 or 0.75 mM as indicated. Optionally, for assays of crude plant extracts, assays also contain 5 mM KF and/or 0.1 mM ammonium molybdate. Assays are started with the addition of ^14C phosphoenolpyruvate (cyclohexylammonium+salt) and stopped after 2-10 minutes (2 minutes is preferable) with the addition of 50 μl of a solution of 1 part 1M acetic acid and 9 parts ethanol. […] Apparent Km and Vmax values are determined by least squares fit to a hyperbola with simple weighting using the Grafit 3.09b from Erithacus Software Ltd. Km values are generally ascertained using 8-9 concentrations of variable substrate ranging from Km/2-10 Km and triplicate points. […]
# [2] = tested on: sensitive w/t form of EPSPS (endogenous); test: EPSPS assay of plant extracts +/- 0.1 mM glyphosate, sensitive w/t form; type: biochemical, corn; settings: 0.1 mM N-(phosphonomethyl)glycine, 0.1 mM 14C-PEP, 0.75 mM shikimate-3-Pi
# Method: as §1
# [3] = tested on: resistant form of EPSPS; test: EPSPS assay of plant extracts +/- 0.1 mM glyphosate, resistant form; type: biochemical, rice; settings: 0.1 mM N-(phosphonomethyl)glycine, 0.1 mM 14C-PEP, 0.75 mM shikimate-3-Pi, estimated
# Method: as §1
structure (smiles),measurement,setting,value
O=C(O)CNCP(=O)(O)O [potassium salt of glyphosate],IC50,[1],~600 µM
same,Ki,[1],~200 µM
"O=C(O)CNCP(=O)(O)O [glyphosate, N-phosphonomethylglycine]",inhibition of sensitive w/t EPSPS,[2],> 98%
same,inhibition of resistant (tolerant) EPSPS,[3],~8%
same,inhibition of resistant (tolerant) EPSPS,[3]; listed as N-(phosphonomethyl)glycine,< 8.5%
